The data set deals with U2OS cells. In kind it is cell-based. As to conditions: human, 0 h, 1 µM. The protocol:
To assess the influence on cell health, a high-content screening in living cells called the multiplex high-content assay, as described previously by Tjaden et al., was performed.[38] In brief, HEK293T (ATCC CRL-1573) and U2OS (ATCCHTB-96) were cultured in DMEM plus L-glutamine (high glucose) supplemented by 10% FBS (Gibco) and penicillin/streptomycin (Gibco). MRC-9 fibroblasts ([…]) were cultured in EMEM plus L-glutamine supplemented by 10% FBS (Gibco) and penicillin/streptomycin (Gibco). Cells were seeded at a density of 1250 cells per well in a 384-well plate in a culture medium (cell culture microplate, PS, f-bottom, μClear, 781091, Greiner), with a volume of 50 μL per well. All outer wells were filled with 100 μL of PBS buffer (Gibco). […] The cell shape and fluorescence were measured before treatment and 12, 24, and 48 h after compound treatment using the CQ1 high-content confocal microscope (Yokogawa, Musashino, Japan). […] The compounds were tested at 1 and 10 μM, respectively. Acquired images of the cells were processed using Yokogawa CellPathfinder software (v3.04.02.02). […] Results were normalized to cells exposed to 0.1% DMSO. All compounds were tested in biological duplicates, and SEM (standard error of mean) was calculated of biological duplicates.

The values below come from paper PMC12090182, “Repurposing of the RIPK1-Selective Benzo[1,4]oxazepin-4-one Scaffold for the Development of a Type III LIMK1/2 Inhibitor” (ACS Chemical Biology, 2025).

Structures are written as SMILES.

For `CN1C(=O)[C@@H](N2CCc3c(C(N)=O)nn(Cc4ccccc4)c3C2=O)COc2ccccc21` [Compound 11], the “Population apoptotic cell (%)” value is 66.67%.
